Experiment: Inhibitory activity against clostridium histolyticum collagenase

Row | SMILES | Ki
1 | CC(C(=O)O)N(Cc1ccccc1[N+](=O)[O-])C(=O)NS(=O)(=O)c1ccccc1 (stereo unspecified) [2-((2-nitrobenzyl){[(phenylsulfonyl)amino]carbonyl}amino)propanoic acid] | 3.6 µM
2 | COc1ccc(S(=O)(=O)N(Cc2ccccc2[N+](=O)[O-])C(C)C(=O)NO)cc1 (stereo unspecified) [2-(N-(2-nitrobenzyl)-4-methoxyphenylsulfonamido)-N-hydroxypropanamide] | 0.019 µM
3 | CC(C(=O)NO)N(Cc1ccccc1[N+](=O)[O-])C(=O)Nc1ccc(F)cc1F (stereo unspecified) [2-[3-(2,4-Difluoro-phenyl)-1-(2-nitro-benzyl)-ureido]-N-hydroxy-propionamide] | 0.012 µM
4 | CC(C(=O)O)N(Cc1ccccc1[N+](=O)[O-])C(=O)Nc1ccc(F)cc1F (stereo unspecified) [2-[3-(2,4-Difluoro-phenyl)-1-(2-nitro-benzyl)-ureido]-propionic acid] | 6.5 µM
5 | CC(C(=O)NO)N(Cc1ccccc1[N+](=O)[O-])C(=O)Nc1ccc(Cl)c(Cl)c1 (stereo unspecified) [2-[3-(3,4-Dichloro-phenyl)-1-(2-nitro-benzyl)-ureido]-N-hydroxy-propionamide] | 0.014 µM
6 | CC(C(=O)O)N(Cc1ccccc1[N+](=O)[O-])C(=O)Nc1ccc(Cl)c(Cl)c1 (stereo unspecified) [2-[3-(3,4-Dichloro-phenyl)-1-(2-nitro-benzyl)-ureido]-propionic acid] | 5.3 µM
7 | CC(C(=O)NO)N(Cc1ccccc1[N+](=O)[O-])C(=O)Nc1cccc(Cl)c1 (stereo unspecified) [2-[3-(3-Chloro-phenyl)-1-(2-nitro-benzyl)-ureido]-N-hydroxy-propionamide] | 0.017 µM
8 | CC(C(=O)O)N(Cc1ccccc1[N+](=O)[O-])C(=O)Nc1cccc(Cl)c1 (stereo unspecified) [2-[3-(3-Chloro-phenyl)-1-(2-nitro-benzyl)-ureido]-propionic acid] | 6.6 µM
9 | CC(C(=O)NO)N(Cc1ccccc1[N+](=O)[O-])C(=O)Nc1ccc(Cl)cc1 (stereo unspecified) [2-[3-(4-Chloro-phenyl)-1-(2-nitro-benzyl)-ureido]-N-hydroxy-propionamide] | 0.019 µM
10 | CC(C(=O)O)N(Cc1ccccc1[N+](=O)[O-])C(=O)Nc1ccc(Cl)cc1 (stereo unspecified) [2-[3-(4-Chloro-phenyl)-1-(2-nitro-benzyl)-ureido]-propionic acid] | 6.8 µM
11 | CC(C(=O)NO)N(Cc1ccccc1[N+](=O)[O-])C(=O)Nc1ccc(F)cc1 (stereo unspecified) [2-[3-(4-Fluoro-phenyl)-1-(2-nitro-benzyl)-ureido]-N-hydroxy-propionamide] | 0.015 µM
12 | CC(C(=O)O)N(Cc1ccccc1[N+](=O)[O-])C(=O)Nc1ccc(F)cc1 (stereo unspecified) [2-[3-(4-Fluoro-phenyl)-1-(2-nitro-benzyl)-ureido]-propionic acid] | 6.2 µM
13 | CC(C(=O)NO)N(Cc1ccccc1[N+](=O)[O-])C(=S)NC(=O)c1ccccc1 (stereo unspecified) [2-[3-Benzoyl-1-(2-nitro-benzyl)-thioureido]-N-hydroxy-propionamide] | 0.008 µM
14 | CC(C(=O)O)N(Cc1ccccc1[N+](=O)[O-])C(=S)NC(=O)c1ccccc1 (stereo unspecified) [2-[3-Benzoyl-1-(2-nitro-benzyl)-thioureido]-propionic acid] | 0.7 µM
15 | CC(C(=O)O)N(Cc1ccccc1[N+](=O)[O-])C(=O)Nc1cccc2ccccc12 (stereo unspecified) [2-[3-Naphthalen-1-yl-1-(2-nitro-benzyl)-ureido]-propionic acid] | 5 µM
16 | CC(C(=O)NO)N(Cc1ccccc1[N+](=O)[O-])Sc1ccc([N+](=O)[O-])cc1[N+](=O)[O-] (stereo unspecified) [2-[(2,4-Dinitro-phenylsulfanyl)-(2-nitro-benzyl)-amino]-N-hydroxy-propionamide] | 0.009 µM
17 | CC(C(=O)O)N(Cc1ccccc1[N+](=O)[O-])Sc1ccc([N+](=O)[O-])cc1[N+](=O)[O-] (stereo unspecified) [2-[(2,4-Dinitro-phenylsulfanyl)-(2-nitro-benzyl)-amino]-propionic acid] | 5.2 µM
18 | CC(C(=O)NO)N(Cc1ccccc1[N+](=O)[O-])S(=O)(=O)c1cc(Cl)ccc1Cl (stereo unspecified) [2-[(2,5-Dichloro-benzenesulfonyl)-(2-nitro-benzyl)-amino]-N-hydroxy-propionamide] | 0.014 µM
19 | CC(C(=O)O)N(Cc1ccccc1[N+](=O)[O-])S(=O)(=O)c1cc(Cl)ccc1Cl (stereo unspecified) [2-[(2,5-Dichloro-benzenesulfonyl)-(2-nitro-benzyl)-amino]-propionic acid] | 3.4 µM
20 | CC(C(=O)O)N(Cc1ccccc1[N+](=O)[O-])S(=O)(=O)c1ccccc1[N+](=O)[O-] (stereo unspecified) [2-[(2-Nitro-benzenesulfonyl)-(2-nitro-benzyl)-amino]-propionic acid] | 4.4 µM
21 | Cc1cc(C)c(S(=O)(=O)N(Cc2ccccc2[N+](=O)[O-])C(C)C(=O)O)c(C)c1 (stereo unspecified) [2-[(2-Nitro-benzyl)-(2,4,6-trimethyl-benzenesulfonyl)-amino]-propionic acid] | 6 µM
22 | CC(C(=O)O)N(Cc1ccccc1[N+](=O)[O-])Sc1ccccc1[N+](=O)[O-] (stereo unspecified) [2-[(2-Nitro-benzyl)-(2-nitro-phenylsulfanyl)-amino]-propionic acid] | 6.2 µM
23 | CC(C(=O)O)N(Cc1ccccc1[N+](=O)[O-])S(=O)(=O)c1cccc(C(F)(F)F)c1 (stereo unspecified) [2-[(2-Nitro-benzyl)-(3-trifluoromethyl-benzenesulfonyl)-amino]-propionic acid] | 0.4 µM

Row | SMILES | Ki
24 | CC(C(=O)O)N(Cc1ccccc1[N+](=O)[O-])Sc1ccc([N+](=O)[O-])cc1 (stereo unspecified) [2-[(2-Nitro-benzyl)-(4-nitro-phenylsulfanyl)-amino]-propionic acid] | 6 µM
25 | CC(C(=O)O)N(Cc1ccccc1[N+](=O)[O-])S(=O)(=O)C(F)(F)C(F)(F)C(F)(F)C(F)(F)F (stereo unspecified) [2-[(2-Nitro-benzyl)-(nonafluorobutane-1-sulfonyl)-amino]-propionic acid] | 2.1 µM
26 | CC(C(=O)O)N(Cc1ccccc1[N+](=O)[O-])S(=O)(=O)c1cccc2cccnc12 (stereo unspecified) [2-[(2-Nitro-benzyl)-(quinoline-8-sulfonyl)-amino]-propionic acid] | 2 µM
27 | CC(C(=O)O)N(Cc1ccccc1[N+](=O)[O-])S(=O)(=O)c1cccs1 (stereo unspecified) [2-[(2-Nitro-benzyl)-(thiophene-2-sulfonyl)-amino]-propionic acid] | 2 µM
28 | Cc1ccc(S(=O)(=O)N(Cc2ccccc2[N+](=O)[O-])C(C)C(=O)O)cc1 (stereo unspecified) [2-[(2-Nitro-benzyl)-(toluene-4-sulfonyl)-amino]-propionic acid] | 17 µM
29 | CC(C(=O)O)N(Cc1ccccc1[N+](=O)[O-])S(=O)(=O)c1c(F)c(F)c(F)c(F)c1F (stereo unspecified) [2-[(2-Nitro-benzyl)-pentafluorobenzenesulfonyl-amino]-propionic acid] | 0.3 µM
30 | CC(C(=O)O)N(Cc1ccccc1[N+](=O)[O-])S(=O)(=O)Cc1ccccc1 (stereo unspecified) [2-[(2-Nitro-benzyl)-phenylmethanesulfonyl-amino]-propionic acid] | 18 µM
31 | CC(C(=O)O)N(Cc1ccccc1[N+](=O)[O-])S(=O)(=O)C(Cl)(Cl)Cl (stereo unspecified) [2-[(2-Nitro-benzyl)-trichloromethanesulfonyl-amino]-propionic acid] | 5 µM
32 | CC(C(=O)O)N(Cc1ccccc1[N+](=O)[O-])S(=O)(=O)C(F)(F)F (stereo unspecified) [2-[(2-Nitro-benzyl)-trifluoromethanesulfonyl-amino]-propionic acid] | 5.1 µM
33 | CC(C(=O)NO)N(Cc1ccccc1[N+](=O)[O-])S(=O)(=O)c1cc(Cl)cc(Cl)c1O (stereo unspecified) [2-[(3,5-Dichloro-2-hydroxy-benzenesulfonyl)-(2-nitro-benzyl)-amino]-N-hydroxy-propionamide] | 0.01 µM
34 | CC(C(=O)O)N(Cc1ccccc1[N+](=O)[O-])S(=O)(=O)c1cc(Cl)cc(Cl)c1O (stereo unspecified) [2-[(3,5-Dichloro-2-hydroxy-benzenesulfonyl)-(2-nitro-benzyl)-amino]-propionic acid] | 2.7 µM
35 | CC(C(=O)NO)N(Cc1ccccc1[N+](=O)[O-])S(=O)(=O)c1ccc([N+](=O)[O-])c(Cl)c1 (stereo unspecified) [2-[(3-Chloro-4-nitro-benzenesulfonyl)-(2-nitro-benzyl)-amino]-N-hydroxy-propionamide] | 0.009 µM
36 | CC(C(=O)O)N(Cc1ccccc1[N+](=O)[O-])S(=O)(=O)c1ccc([N+](=O)[O-])c(Cl)c1 (stereo unspecified) [2-[(3-Chloro-4-nitro-benzenesulfonyl)-(2-nitro-benzyl)-amino]-propionic acid] | 3.1 µM
37 | CC(C(=O)O)N(Cc1ccccc1[N+](=O)[O-])S(=O)(=O)c1cccc([N+](=O)[O-])c1 (stereo unspecified) [2-[(3-Nitro-benzenesulfonyl)-(2-nitro-benzyl)-amino]-propionic acid] | 5.2 µM
38 | COc1ccc(S(=O)(=O)N(Cc2ccccc2[N+](=O)[O-])C(C)C(=O)O)cc1NC(=O)OC(C)(C)C (stereo unspecified) [2-[(3-tert-Butoxycarbonylamino-4-methoxy-benzenesulfonyl)-(2-nitro-benzyl)-amino]-propionic acid] | 2.5 µM
39 | CC(C(=O)O)N(Cc1ccccc1[N+](=O)[O-])S(=O)(=O)c1cccc(NC(=O)OC(C)(C)C)c1 (stereo unspecified) [2-[(3-tert-Butoxycarbonylamino-benzenesulfonyl)-(2-nitro-benzyl)-amino]-propionic acid] | 2.5 µM
40 | CC(=O)c1ccc(S(=O)(=O)N(Cc2ccccc2[N+](=O)[O-])C(C)C(=O)NO)cc1 (stereo unspecified) [2-[(4-Acetyl-benzenesulfonyl)-(2-nitro-benzyl)-amino]-N-hydroxy-propionamide] | 0.01 µM
41 | CC(=O)c1ccc(S(=O)(=O)N(Cc2ccccc2[N+](=O)[O-])C(C)C(=O)O)cc1 (stereo unspecified) [2-[(4-Acetyl-benzenesulfonyl)-(2-nitro-benzyl)-amino]-propionic acid] | 2 µM
42 | CC(=O)Nc1ccc(S(=O)(=O)N(Cc2ccccc2[N+](=O)[O-])C(C)C(=O)NO)cc1 (stereo unspecified) [2-[(4-Acetylamino-benzenesulfonyl)-(2-nitro-benzyl)-amino]-N-hydroxy-propionamide] | 0.012 µM
43 | CC(=O)Nc1ccc(S(=O)(=O)N(Cc2ccccc2[N+](=O)[O-])C(C)C(=O)O)cc1 (stereo unspecified) [2-[(4-Acetylamino-benzenesulfonyl)-(2-nitro-benzyl)-amino]-propionic acid] | 3.3 µM
44 | CC(C(=O)NO)N(Cc1ccccc1[N+](=O)[O-])S(=O)(=O)c1ccc(Br)cc1 (stereo unspecified) [2-[(4-Bromo-benzenesulfonyl)-(2-nitro-benzyl)-amino]-N-hydroxy-propionamide] | 0.033 µM
45 | CC(C(=O)O)N(Cc1ccccc1[N+](=O)[O-])S(=O)(=O)c1ccc(Br)cc1 (stereo unspecified) [2-[(4-Bromo-benzenesulfonyl)-(2-nitro-benzyl)-amino]-propionic acid] | 10 µM
46 | CC(C(=O)NO)N(Cc1ccccc1[N+](=O)[O-])S(=O)(=O)c1ccc(Cl)cc1 (stereo unspecified) [2-[(4-Chloro-benzenesulfonyl)-(2-nitro-benzyl)-amino]-N-hydroxy-propionamide] | 0.032 µM

From BindingDB's records for doi:10.1021/jm010087e (The University of Western Australia, 2001)
